# Publication PMC6593727 (Clinical Pharmacology in Drug Development, 2019)
# Where two headings read alike, the source gives them in different places.
# Experiments:
# CYP3A4 = CYP3A4 (Homo sapiens, UniProt P08684); conditions: for AUC(0-inf): AUCinf; for Tmax: tmax (median [min‐max]); for half-life: t½
# CYP2C19 [1] = biological target: T1, CYP2C19 (Homo sapiens, UniProt P33261); conditions: for AUC(0-inf): AUCinf; for half-life: t½
# CYP2D6 = CYP2D6 (Homo sapiens, UniProt P10635); conditions: for AUC(0-inf) / Cmax / Tmax / half-life: female, human, plasma, oral; for AUC(0-inf): AUCinf; for Tmax: tmax (median [min‐max]); for half-life: t½
# CYP2C9 = CYP2C9 (Homo sapiens, UniProt P11712); assay: Inje cocktail DDI study: losartan and EXP‐3174 PK, assessment of CYP2C9 activity; conditions: for AUC(0-inf) / Cmax / Tmax / half-life: female, human, plasma, oral; for AUC(0-inf): AUCinf; for Tmax: tmax (median [min‐max]); for half-life: t½
# CYP2C19 [2] = biological target: T1, CYP2C19; conditions: single oral 20 mg omeprazole with 100 mg ASP8477 vs alone, female subjects; ref first‐in‐human study (8477‐CL‐0001); cited from earlier work
# [3] = cocktail alone (day 1), mean ± SD
# [4] = + 20 mg ASP8477 once daily (day 7), mean ± SD
# [5] = probe dextromethorphan, + 60 mg ASP8477 once daily (day 14), mean ± SD
# [6] = probe dextromethorphan, + 100 mg ASP8477 once daily (day 23), mean ± SD
# [7] = probe dextromethorphan, + 20 mg ASP8477 once daily (day 7)
# [8] = probe dextromethorphan, + 60 mg ASP8477 once daily (day 14)
# [9] = probe dextromethorphan, + 100 mg ASP8477 once daily (day 23)
# [10] = probe dextromethorphan, + 20 mg ASP8477 once daily (day 7), mean ± SD
# [11] = + 60 mg ASP8477 once daily (day 14), mean ± SD
# [12] = + 100 mg ASP8477 once daily (day 23), mean ± SD
# [13] = + 20 mg ASP8477 once daily (day 7)
# [14] = + 60 mg ASP8477 once daily (day 14)
# [15] = + 100 mg ASP8477 once daily (day 23)
# [16] = female, human, plasma, oral, probe midazolam, + 20 mg ASP8477 once daily (day 7), mean ± SD
# [17] = female, human, plasma, oral, probe midazolam, + 60 mg ASP8477 once daily (day 14), mean ± SD
# [18] = female, human, plasma, oral, probe midazolam, + 100 mg ASP8477 once daily (day 23), mean ± SD
# [19] = female, human, plasma, oral, + 20 mg ASP8477 once daily (day 7), mean ± SD
# [20] = female, human, plasma, oral, + 60 mg ASP8477 once daily (day 14), mean ± SD
# [21] = female, human, plasma, oral, cocktail alone (day 1), mean ± SD
# Sequence of CYP3A4 (P08684 whole entry): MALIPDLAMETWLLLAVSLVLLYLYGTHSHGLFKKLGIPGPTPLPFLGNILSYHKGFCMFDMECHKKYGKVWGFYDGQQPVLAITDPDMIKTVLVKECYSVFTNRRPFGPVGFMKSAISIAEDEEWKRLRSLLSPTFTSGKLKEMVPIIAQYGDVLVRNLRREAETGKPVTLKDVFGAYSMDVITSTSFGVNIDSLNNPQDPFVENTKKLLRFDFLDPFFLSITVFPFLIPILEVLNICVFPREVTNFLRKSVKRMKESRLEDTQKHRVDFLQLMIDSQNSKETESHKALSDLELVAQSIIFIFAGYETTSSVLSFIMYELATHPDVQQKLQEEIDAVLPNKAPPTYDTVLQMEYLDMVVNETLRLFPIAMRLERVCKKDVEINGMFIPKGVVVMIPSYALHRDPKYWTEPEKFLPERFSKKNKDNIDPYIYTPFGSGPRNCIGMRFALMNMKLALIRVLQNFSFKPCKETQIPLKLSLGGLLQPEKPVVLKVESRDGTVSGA
# Sequence of CYP2D6 (P10635 whole entry): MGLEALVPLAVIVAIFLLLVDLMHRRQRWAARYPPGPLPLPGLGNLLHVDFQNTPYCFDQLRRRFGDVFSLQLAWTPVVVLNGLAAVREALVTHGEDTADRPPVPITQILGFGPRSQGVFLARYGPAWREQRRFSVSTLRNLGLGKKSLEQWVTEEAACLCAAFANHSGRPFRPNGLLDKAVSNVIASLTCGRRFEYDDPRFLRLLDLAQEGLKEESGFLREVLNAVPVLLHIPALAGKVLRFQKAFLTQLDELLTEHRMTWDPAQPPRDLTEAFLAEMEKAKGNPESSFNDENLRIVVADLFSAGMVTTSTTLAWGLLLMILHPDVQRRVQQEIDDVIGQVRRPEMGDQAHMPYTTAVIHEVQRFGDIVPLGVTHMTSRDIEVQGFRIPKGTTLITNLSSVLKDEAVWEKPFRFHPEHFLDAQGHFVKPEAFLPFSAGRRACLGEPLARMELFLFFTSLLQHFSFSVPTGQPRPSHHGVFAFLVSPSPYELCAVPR
# T1 sequence (P33261 whole entry): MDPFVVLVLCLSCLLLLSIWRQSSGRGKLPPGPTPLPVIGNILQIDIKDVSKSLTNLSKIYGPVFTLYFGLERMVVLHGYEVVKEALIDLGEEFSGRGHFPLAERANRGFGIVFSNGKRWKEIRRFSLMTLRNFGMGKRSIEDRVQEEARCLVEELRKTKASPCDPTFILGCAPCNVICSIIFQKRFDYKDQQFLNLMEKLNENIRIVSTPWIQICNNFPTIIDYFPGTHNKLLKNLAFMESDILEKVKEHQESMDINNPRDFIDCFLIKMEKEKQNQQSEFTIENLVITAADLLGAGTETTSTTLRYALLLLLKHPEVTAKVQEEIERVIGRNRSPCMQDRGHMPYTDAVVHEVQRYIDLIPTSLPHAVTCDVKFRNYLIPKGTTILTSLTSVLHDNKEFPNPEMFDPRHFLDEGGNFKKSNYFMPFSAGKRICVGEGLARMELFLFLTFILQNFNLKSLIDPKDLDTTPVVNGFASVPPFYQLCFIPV
# Sequence of CYP2C9 (P11712 whole entry): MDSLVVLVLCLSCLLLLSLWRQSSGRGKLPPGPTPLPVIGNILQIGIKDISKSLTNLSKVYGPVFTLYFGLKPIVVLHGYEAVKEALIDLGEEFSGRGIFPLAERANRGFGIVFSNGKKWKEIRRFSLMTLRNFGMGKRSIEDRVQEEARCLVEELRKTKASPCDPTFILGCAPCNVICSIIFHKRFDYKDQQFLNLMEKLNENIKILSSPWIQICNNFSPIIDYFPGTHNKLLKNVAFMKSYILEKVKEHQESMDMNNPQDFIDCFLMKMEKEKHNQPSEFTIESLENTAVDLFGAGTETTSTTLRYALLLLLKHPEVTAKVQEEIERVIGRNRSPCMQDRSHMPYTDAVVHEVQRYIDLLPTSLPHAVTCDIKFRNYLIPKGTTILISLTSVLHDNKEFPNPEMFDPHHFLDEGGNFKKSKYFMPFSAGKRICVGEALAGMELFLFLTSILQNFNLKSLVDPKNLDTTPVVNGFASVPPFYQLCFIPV
smiles,measurement,setting,value
"OCc1ncc2n1-c1ccc(Cl)cc1C(c1ccccc1F)=NC2 [1‐OH‐Midazolam, 1‐hydroxymidazolam]",tmax (median [min‐max]),CYP3A4; cocktail alone (day 1),0.52 (0.48‐1.0) h
same,AUCinf,CYP3A4; [3],12 ± 6.1 ng·h/mL
same,Cmax,CYP3A4; [3],5.5 ± 3.0 ng/mL
same,t½,CYP3A4; [3],7.8 ± 13 h
"COc1ccc2nc([S+]([O-])Cc3ncc(CO)c(OC)c3C)[nH]c2c1 (stereo not drawn) [5‐OH‐Omeprazole, 5‐hydroxyomeprazole]",tmax (median [min‐max]),CYP2C19 [1]; cocktail alone (day 1),2.0 (0.98‐4.0) h
same,AUCinf,CYP2C19 [1]; [3],550 ± 130 ng·h/mL
same,Cmax,CYP2C19 [1]; [3],230 ± 76 ng/mL
same,t½,CYP2C19 [1]; [3],1.4 ± 0.56 h
"COc1ccc2c(c1)[C@]13CCCC[C@@H]1[C@H](C2)N(C)CC3 [Dextromethorphan, dextromethorphan, reference compound]",CL/F,CYP2D6; [3],4000 ± 3200 L/h
same,AUC(0-inf),CYP2D6; [4],16 ± 12 ng·h/mL
same,AUC(0-inf),CYP2D6; [3],12 ± 7.9 ng·h/mL
same,Cmax,CYP2D6; [4],1.8 ± 1.2 ng/mL
same,Cmax,CYP2D6; [3],1.3 ± 0.72 ng/mL
same,AUC(0-inf),CYP2D6; [5],39 ± 25 ng·h/mL
same,AUC(0-inf),CYP2D6; [6],65 ± 44 ng·h/mL
same,Cmax,CYP2D6; [5],3.8 ± 2.3 ng/mL
same,Cmax,CYP2D6; [6],5.6 ± 3.1 ng/mL
same,Tmax,CYP2D6; [7],3 h
same,Tmax,CYP2D6; [8],3.1 h
same,Tmax,CYP2D6; [9],3 h
same,half-life,CYP2D6; [10],7.7 ± 2.1 h
same,half-life,CYP2D6; [5],9.3 ± 1.4 h
same,half-life,CYP2D6; [6],9.9 ± 1.5 h
same,Tmax,CYP2D6; cocktail alone (day 1),2 h
same,half-life,CYP2D6; [3],8 ± 2.5 h
"CN1CC[C@@]23CCCC[C@@H]2[C@@H]1Cc1ccc(O)cc13 [Dextrorphan, dextrorphan]",AUC(0-inf),CYP2D6; [4],2400 ± 420 ng·h/mL
same,AUC(0-inf),CYP2D6; [3],2400 ± 450 ng·h/mL
same,Cmax,CYP2D6; [4],470 ± 110 ng/mL
same,Cmax,CYP2D6; [3],490 ± 133 ng/mL
same,AUC(0-inf),CYP2D6; [5],2700 ± 510 ng·h/mL
same,AUC(0-inf),CYP2D6; [6],3000 ± 520 ng·h/mL
same,Cmax,CYP2D6; [5],430 ± 110 ng/mL
same,Cmax,CYP2D6; [6],400 ± 100 ng/mL
same,Tmax,CYP2D6; [7],2 h
same,Tmax,CYP2D6; [8],3.1 h
same,Tmax,CYP2D6; [9],3 h
same,half-life,CYP2D6; [10],6.5 ± 1.7 h
same,half-life,CYP2D6; [5],8.8 ± 2.1 h
same,half-life,CYP2D6; [6],9.9 ± 2.4 h
same,Tmax,CYP2D6; cocktail alone (day 1),2 h
same,half-life,CYP2D6; [3],5.8 ± 1.2 h
"CCCCc1nc(Cl)c(C(=O)O)n1Cc1ccc(-c2ccccc2-c2nn[nH]n2)cc1 [EXP‐3174, losartan acid]",AUC(0-inf),CYP2C9; [4],1100 ± 280 ng·h/mL
same,AUC(0-inf),CYP2C9; [11],960 ± 240 ng·h/mL
same,AUC(0-inf),CYP2C9; [12],780 ± 250 ng·h/mL
same,AUC(0-inf),CYP2C9; [3],1100 ± 370 ng·h/mL
same,Cmax,CYP2C9; [4],96 ± 48 ng/mL
same,Cmax,CYP2C9; [11],54 ± 26 ng/mL
same,Cmax,CYP2C9; [12],35 ± 19 ng/mL
same,Cmax,CYP2C9; [3],100 ± 65 ng/mL
same,Tmax,CYP2C9; [13],5 h
same,Tmax,CYP2C9; [14],8 h
same,Tmax,CYP2C9; [15],8.1 h
same,Tmax,CYP2C9; cocktail alone (day 1),4 h
same,half-life,CYP2C9; [4],8.8 ± 3.5 h
same,half-life,CYP2C9; [11],13 ± 3.7 h
same,half-life,CYP2C9; [12],12 ± 2.5 h
same,half-life,CYP2C9; [3],8 ± 0.64 h
"CCCCc1nc(Cl)c(CO)n1Cc1ccc(-c2ccccc2-c2nn[nH]n2)cc1 [Losartan, losartan, reference compound]",CL/F,CYP2C9; [3],140 ± 61 L/h
same,AUC(0-inf),CYP2C9; [4],230 ± 100 ng·h/mL
same,AUC(0-inf),CYP2C9; [11],320 ± 140 ng·h/mL
same,AUC(0-inf),CYP2C9; [12],410 ± 180 ng·h/mL
same,AUC(0-inf),CYP2C9; [3],220 ± 100 ng·h/mL
same,Cmax,CYP2C9; [4],78 ± 37 ng/mL
same,Cmax,CYP2C9; [11],81 ± 59 ng/mL
same,Cmax,CYP2C9; [12],80 ± 64 ng/mL
same,Cmax,CYP2C9; [3],64 ± 33 ng/mL
same,Tmax,CYP2C9; [13],0.52 h
same,Tmax,CYP2C9; [14],0.52 h
same,Tmax,CYP2C9; [15],0.5 h
same,Tmax,CYP2C9; cocktail alone (day 1),1 h
same,half-life,CYP2C9; [4],4 ± 2.2 h
same,half-life,CYP2C9; [11],5 ± 2.2 h
same,half-life,CYP2C9; [12],7.6 ± 3.3 h
same,half-life,CYP2C9; [3],3.7 ± 2.5 h
"Cc1ncc2n1-c1ccc(Cl)cc1C(c1ccccc1F)=NC2 [Midazolam, midazolam]",CL/F,CYP3A4; [3],66 ± 15 L/h
same,AUC(0-inf),CYP3A4; [16],38 ± 11 ng·h/mL
same,AUC(0-inf),CYP3A4; [17],49 ± 15 ng·h/mL
same,AUC(0-inf),CYP3A4; [18],51 ± 15 ng·h/mL
same,Cmax,"CYP3A4; female, human, plasma, oral, probe midazolam, Cmax, + 20 mg ASP8477 once daily (day 7), mean ± SD",16 ± 5.7 ng/mL
same,Cmax,"CYP3A4; female, human, plasma, oral, probe midazolam, Cmax, + 60 mg ASP8477 once daily (day 14), mean ± SD",20 ± 5.1 ng/mL
same,Cmax,"CYP3A4; female, human, plasma, oral, probe midazolam, Cmax, + 100 mg ASP8477 once daily (day 23), mean ± SD",21 ± 5.1 ng/mL
same,Tmax,"CYP3A4; female, human, plasma, oral, probe midazolam, + 20 mg ASP8477 once daily (day 7)",0.52 h
same,Tmax,"CYP3A4; female, human, plasma, oral, probe midazolam, + 60 mg ASP8477 once daily (day 14)",0.52 h
same,Tmax,"CYP3A4; female, human, plasma, oral, probe midazolam, + 100 mg ASP8477 once daily (day 23)",0.5 h
same,Tmax,"CYP3A4; female, human, plasma, oral, probe midazolam, cocktail alone (day 1)",0.52 h
same,half-life,CYP3A4; [16],5 ± 0.93 h
same,half-life,CYP3A4; [17],5.1 ± 0.95 h
same,half-life,CYP3A4; [18],5.1 ± 1.2 h
"COc1ccc2[nH]c([S+]([O-])Cc3ncc(C)c(OC)c3C)nc2c1 (stereo not drawn) [Omeprazole, omeprazole]",increase of omeprazole AUCinf,CYP2C19 [2],7 fold
same,increase of omeprazole Cmax,CYP2C19 [2],3.5 fold
same,CL/F,CYP2C19 [1]; [3],40 ± 20 L/h
same,AUC(0-inf),CYP2C19 [1]; [19],1200 ± 520 ng·h/mL
same,AUC(0-inf),CYP2C19 [1]; [20],2500 ± 680 ng·h/mL
same,AUC(0-inf),"CYP2C19 [1]; female, human, plasma, oral, + 100 mg ASP8477 once daily (day 23), mean ± SD",3300 ± 1100 ng·h/mL
same,AUC(0-inf),CYP2C19 [1]; [21],630 ± 300 ng·h/mL
same,Cmax,"CYP2C19 [1]; female, human, plasma, oral, Cmax, + 20 mg ASP8477 once daily (day 7), mean ± SD",640 ± 190 ng/mL
same,Cmax,"CYP2C19 [1]; female, human, plasma, oral, Cmax, + 60 mg ASP8477 once daily (day 14), mean ± SD",910 ± 260 ng/mL
same,Cmax,"CYP2C19 [1]; female, human, plasma, oral, Cmax, + 100 mg ASP8477 once daily (day 23), mean ± SD",1100 ± 250 ng/mL
same,Cmax,"CYP2C19 [1]; female, human, plasma, oral, Cmax, cocktail alone (day 1), mean ± SD",320 ± 150 ng/mL
same,half-life,CYP2C19 [1]; [19],0.77 ± 0.2 h
same,half-life,CYP2C19 [1]; [20],1.1 ± 0.25 h
same,half-life,CYP2C19 [1]; [21],0.79 ± 0.17 h
